According to PMC8657855 (International Journal of Molecular Sciences, 2021):
≈ marks a conversion by molar mass, not a printed value.

What was measured:
Assay in all cases: microbe, parasite or virus in culture
[1] = tested on: Xanthomonas oryzae pv. oryzae Xoo; conditions: read-out: EC50 (mg/L) Xoo
[2] = tested on: Xanthomonas oryzae pv. oryzicola Xoc; conditions: read-out: EC50 (mg/L) Xoc
[3] = tested on: Xanthomonas oryzae pv. oryzae Xoo; conditions: for inhibition at 10 µg/mL: read-out: Inhibition (%) 10 (mg/L); for inhibition at 50 µg/mL: read-out: Inhibition (%) 50 (mg/L)
[4] = tested on: Xanthomonas oryzae pv. oryzicola Xoc; conditions: for inhibition at 10 µg/mL: read-out: Inhibition (%) 10 (mg/L); for inhibition at 50 µg/mL: read-out: Inhibition (%) 50 (mg/L)

Row | SMILES | EC50 [1] | EC50 [2] | inhibition at 10 µg/mL [3] | inhibition at 50 µg/mL [3] | inhibition at 10 µg/mL [4] | inhibition at 50 µg/mL [4]
1 | S=c1[nH]nc(NCNc2n[nH]c(=S)s2)s1 [BT, Bismerthiazol] | 83.1 ± 8.07 mg/L (≈ 298 µM) | 105.9 ± 0.56 mg/L (≈ 380 µM) | 2.5 ± 1.6% | 27.4 ± 5% | 7 ± 1.7% | 27 ± 1.7%
2 | CS(=O)(=O)c1nnc(CNC(=O)C=Cc2cccs2)o1 [compound 1, N-((5-(methylsulfonyl)-1,3,4-oxadiazol-2-yl)methyl)-3-(thiophen-2-yl)acrylamide] | 0.68 ± 0.07 mg/L (≈ 2.17 µM) | 0.86 ± 0.08 mg/L (≈ 2.74 µM) | 96.2 ± 1.5% | 97.6 ± 1.2% | 97.3 ± 1.8% | 98.3 ± 0.9%
3 | CCS(=O)(=O)c1nnc(CNC(=O)C=Cc2cccs2)o1 [compound 2, N-((5-(ethylsulfonyl)-1,3,4-oxadiazol-2-yl)methyl)-3-(thiophen-2-yl)acrylamide] | 0.72 ± 0.07 mg/L (≈ 2.2 µM) | 3.41 ± 0.05 mg/L (≈ 10.4 µM) | 85 ± 4.1% | 90.6 ± 8.6% | 96.9 ± 0.3% | 97.5 ± 0.8%
4 | CS(=O)(=O)c1nnc(CNC(=O)c2ccc(Cl)s2)o1 [compound 3, 5-chloro-N-((5-(methylsulfonyl)-1,3,4-oxadiazol-2-yl)methyl)thiophene-2-car boxamide] | 0.53 ± 0.07 mg/L (≈ 1.65 µM) | 1.06 ± 0.04 mg/L (≈ 3.29 µM) | 98.6 ± 0.8% | 95.8 ± 2.6% | 98 ± 0.2% | 98.3 ± 1.3%
5 | CCS(=O)(=O)c1nnc(CNC(=O)c2ccc(Cl)s2)o1 [compound 4, 5-chloro-N-((5-(ethylsulfonyl)-1,3,4-oxadiazol-2-yl)methyl)thiophene-2-carb oxamide] | 0.45 ± 0.04 mg/L (≈ 1.34 µM) | 0.83 ± 0.01 mg/L (≈ 2.47 µM) | 98.3 ± 1% | 97.9 ± 1.5% | 96.9 ± 1.1% | 99 ± 0.2%
6 | CS(=O)(=O)c1nnc(CNC(=O)c2ccc(Br)o2)o1 [compound 5, 5-bromo-N-((5-(methylsulfonyl)-1,3,4-oxadiazol-2-yl)methyl)furan-2-carbox amide] | 0.48 ± 0.01 mg/L (≈ 1.37 µM) | 2.59 ± 0.05 mg/L (≈ 7.4 µM) | 96.3 ± 2.5% | 96.6 ± 0.4% | 99.3 ± 0.1% | 97.8 ± 2%
7 | CS(=O)(=O)c1nnc(CNC(=O)c2ncc(C(F)(F)F)cc2Cl)o1 [compound 6, 3-chloro-N-((5-(methylsulfonyl)-1,3,4-oxadiazol-2-yl)methyl)-5-(trifluoromethyl)picolinamide] | 3.49 ± 0.07 mg/L (≈ 9.07 µM) | 3.31 ± 0.09 mg/L (≈ 8.6 µM) | 94.8 ± 1.8% | 99.7 ± 0.2% | 95.5 ± 0.8% | 99.3 ± 0.2%
8 | CCS(=O)(=O)c1nnc(CNC(=O)c2ncc(C(F)(F)F)cc2Cl)o1 [compound 7, 3-chloro-N-((5-(ethylsulfonyl)-1,3,4-oxadiazol-2-yl)methyl)-5-(trifluoromethyl)picolinamide] | 7.45 ± 0.16 mg/L (≈ 18.7 µM) | 7.58 ± 0.27 mg/L (≈ 19 µM) | 48.1 ± 0.8% | 99.8 ± 0.1% | 40.1 ± 1.3% | 99.6 ± 0.2%
9 | CS(=O)(=O)c1nnc(CNC(=O)C=Cc2ccccc2)o1 [compound 8, N-((5-(methylsulfonyl)-1,3,4-oxadiazol-2-yl)methyl)cinnamamide] | 0.73 ± 0.08 mg/L (≈ 2.38 µM) | 0.7 ± 0.01 mg/L (≈ 2.28 µM) | 99.7 ± 0.3% | 98.9 ± 0.5% | 98.8 ± 0.7% | 92.3 ± 7.3%
10 | CCS(=O)(=O)c1nnc(CNC(=O)C=Cc2ccccc2)o1 [compound 9, N-((5-(ethylsulfonyl)-1,3,4-oxadiazol-2-yl)methyl)cinnamamide] | 0.89 ± 0.12 mg/L (≈ 2.77 µM) | 0.78 ± 0.01 mg/L (≈ 2.43 µM) | 100% | 97.6 ± 1.4% | 97.1 ± 1.6% | 98 ± 1.7%
11 | CS(=O)(=O)c1nnc(CNC(=O)C=Cc2ccc(F)cc2)o1 [compound 10, 3-(4-fluorophenyl)-N-((5-(methylsulfonyl)-1,3,4-oxadiazol-2-yl)methyl)acrylamide] | 0.36 ± 0.03 mg/L (≈ 1.11 µM) | 0.53 ± 0.01 mg/L (≈ 1.63 µM) | 99 ± 0.3% | 99.5 ± 0.1% | 99 ± 0.8% | 95.6 ± 1%
12 | CCS(=O)(=O)c1nnc(CNC(=O)C=Cc2ccc(F)cc2)o1 [compound 11, N-((5-(ethylsulfonyl)-1,3,4-oxadiazol-2-yl)methyl)-3-(4-fluorophenyl)acrylamide] | 0.72 ± 0.05 mg/L (≈ 2.12 µM) | 10.8 ± 2.91 mg/L (≈ 31.7 µM) | 98.8 ± 0.1% | 99.2 ± 0.4% | 50.6 ± 2.1% | 99 ± 1.3%
13 | Cc1ccc(C=CC(=O)NCc2nnc(S(C)(=O)=O)o2)cc1 [compound 12, N-((5-(methylsulfonyl)-1,3,4-oxadiazol-2-yl)methyl)-3-(p-tolyl)acrylamide] | 0.52 ± 0.04 mg/L (≈ 1.62 µM) | 0.64 ± 0.05 mg/L (≈ 1.99 µM) | 99.5 ± 0.1% | 99.8 ± 0.2% | 96.9 ± 2.3% | 95.6 ± 2.1%
14 | CCS(=O)(=O)c1nnc(CNC(=O)C=Cc2ccc(C)cc2)o1 [compound 13, N-((5-(ethylsulfonyl)-1,3,4-oxadiazol-2-yl)methyl)-3-(p-tolyl)acrylamide] | 0.72 ± 0.07 mg/L (≈ 2.15 µM) | 0.88 ± 0.03 mg/L (≈ 2.62 µM) | 99.5 ± 0.1% | 99.2 ± 0.2% | 98.1 ± 0.6% | 95.8 ± 1.2%
15 | CS(=O)(=O)c1nnc(CNC(=O)C=Cc2ccc(Cl)cc2)o1 [compound 14, 3-(4-chlorophenyl)-N-((5-(methylsulfonyl)-1,3,4-oxadiazol-2-yl)methyl)acrylamide] | 0.43 ± 0.06 mg/L (≈ 1.26 µM) | 0.61 ± 0.03 mg/L (≈ 1.78 µM) | 97.6 ± 0.8% | – | 98.8 ± 0.7% | 98.2 ± 1.1%
16 | CCS(=O)(=O)c1nnc(CNC(=O)C=Cc2ccc(Cl)cc2)o1 [compound 15, 3-(4-chlorophenyl)-N-((5-(ethylsulfonyl)-1,3,4-oxadiazol-2-yl)methyl)acrylamide] | 0.43 ± 0.04 mg/L (≈ 1.21 µM) | 1.45 ± 0.05 mg/L (≈ 4.08 µM) | 98.1 ± 0.6% | 98.3 ± 0.2% | 97.9 ± 0.4% | 98.9 ± 0.3%
17 | CS(=O)(=O)c1nnc(CNC(=O)C=Cc2ccc(Cl)cc2Cl)o1 [compound 16, 3-(2,4-dichlorophenyl)-N-((5-(methylsulfonyl)-1,3,4-oxadiazol-2-yl)methyl)a crylamide] | 0.42 ± 0.05 mg/L (≈ 1.12 µM) | 1.15 ± 0.05 mg/L (≈ 3.06 µM) | 98.9 ± 0.3% | 99 ± 0.4% | 99.2 ± 0.7% | 97.7 ± 0.7%
18 | CC(=CC(=O)NCc1nnc(S(C)(=O)=O)o1)c1ccccc1 [compound 17, N-((5-(methylsulfonyl)-1,3,4-oxadiazol-2-yl)methyl)-3-phenylbut-2-enamide] | 0.54 ± 0.04 mg/L (≈ 1.68 µM) | 5.21 ± 0.11 mg/L (≈ 16.2 µM) | 99.4 ± 0.5% | 99.7 ± 0.4% | 67.7 ± 0.9% | 94.7 ± 0.9%
19 | Cc1ccc(C(=O)NCc2nnc(S(C)(=O)=O)o2)c(C)c1 [compound 18, 2,4-dimethyl-N-((5-(methylsulfonyl)-1,3,4-oxadiazol-2-yl)methyl)benzamide] | 0.69 ± 0.04 mg/L (≈ 2.23 µM) | 1.74 ± 0.11 mg/L (≈ 5.62 µM) | 98.8 ± 0.2% | 98.2 ± 1.4% | 98.9 ± 1% | 96.9 ± 0.2%
20 | CCS(=O)(=O)c1nnc(CNC(=O)c2ccc(C)cc2C)o1 [compound 19, N-((5-(ethylsulfonyl)-1,3,4-oxadiazol-2-yl)methyl)-2,4-dimethylbenzamide] | 1.08 ± 0.11 mg/L (≈ 3.34 µM) | 1.69 ± 0.18 mg/L (≈ 5.23 µM) | 97.2 ± 1.4% | 98.1 ± 0.8% | 98.2 ± 1% | 95.8 ± 0.8%
21 | Cc1ccc(C(=O)NCc2nnc(S(C)(=O)=O)o2)cc1 [compound 20, 4-methyl-N-((5-(methylsulfonyl)-1,3,4-oxadiazol-2-yl)methyl)benzamide] | 0.63 ± 0.06 mg/L (≈ 2.13 µM) | 1.66 ± 0.21 mg/L (≈ 5.62 µM) | 99.4 ± 0.3% | 99.6 ± 0.3% | 67.8 ± 6.8% | 99 ± 0.9%
22 | CS(=O)(=O)c1nnc(CNC(=O)c2c(F)cccc2F)o1 [compound 21, 2,6-difluoro-N-((5-(methylsulfonyl)-1,3,4-oxadiazol-2-yl)methyl)benzamide] | 0.65 ± 0.05 mg/L (≈ 2.05 µM) | 1.51 ± 0.02 mg/L (≈ 4.76 µM) | 97.4 ± 0.3% | 96.3 ± 0.4% | 97.1 ± 2.3% | 98.4 ± 1.1%
